Values joined by “and” are separate entries in the source; they are usually repeats but may differ in a detail not shown here. Identical values can stand only once.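 Protocol summary: plate cells (96-well), add compound at 5 concentrations, incubate 48 h, interpolate endpoints linearly. GI50 is the concentration that inhibits growth by half. TGI denotes the concentration required for complete inhibition of growth.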
What was measured:
Experiment in all cases: growth of human tumour cells (NCI), 48 h
M14 melanoma = test system: M14 melanoma
SF-295 CNS = test system: SF-295 CNS
SK-MEL-2 melanoma = test system: SK-MEL-2 melanoma
HOP-62 NSCLC = test system: HOP-62 NSCLC
NCI-H522 lung = test system: NCI-H522 lung
CAKI-1 renal = test system: CAKI-1 renal
TK-10 renal = test system: TK-10 renal
EKVX NSCLC = test system: EKVX NSCLC
SW-620 colon = test system: SW-620 colon
HT29 colon = test system: HT29 colon

Row | Compound | GI50 (M14 melanoma) | TGI (M14 melanoma) | GI50 (SF-295 CNS) | TGI (SF-295 CNS) | GI50 (SK-MEL-2 melanoma) | TGI (SK-MEL-2 melanoma) | GI50 (HOP-62 NSCLC) | TGI (HOP-62 NSCLC) | GI50 (NCI-H522 lung) | TGI (NCI-H522 lung) | GI50 (CAKI-1 renal) | TGI (CAKI-1 renal) | GI50 (TK-10 renal) | TGI (TK-10 renal) | GI50 (EKVX NSCLC) | TGI (EKVX NSCLC) | GI50 (SW-620 colon) | TGI (SW-620 colon) | GI50 (HT29 colon) | TGI (HT29 colon)
1 | CN(C)c1ccc(N=C(C#N)c2nc(N)nc(N3CCOCC3)n2)cc1 | > 100 µM | > 100 µM | 15.9 µM | 31.3 µM | > 100 µM | > 100 µM | 55.2 µM | > 100 µM | 26.5 µM | > 100 µM | 39.9 µM | > 100 µM | 23 µM | 63.6 µM | > 100 µM | > 100 µM | > 100 µM | > 100 µM | 67.5 µM | > 100 µM
2 | COc1cc2c(cc1OCCCN1CCN(CCCOc3cc4c(cc3OC)C(=O)C3CCC[C@H]3C=N4)CC1)N=C[C@@H]1CCCC1C2=O (stereo not given in full) | 6.25 µM | 22.7 µM | 9.4 µM | 79.8 µM | 1.71 µM | 4.8 µM | 4.78 µM | > 100 µM | 0.446 µM | > 29.6 µM | 26.5 µM | > 79.8 µM | 7.9 µM | > 100 µM | 34.2 µM | > 100 µM | 1.19 µM | > 35 µM | 23.3 µM | > 68.8 µM
3 | Cn1cc(-c2csc(-c3cn(C)c4ncccc34)n2)c2ccccc21 | 0.256 µM | > 41.4 µM | 0.274 µM | 12.6 µM | 0.405 µM | 16.8 µM | 0.622 µM | 19.3 µM | 0.0889 µM | 1.16 µM | 0.373 µM | 32.5 µM | 1 µM | 19.4 µM | 0.906 µM | > 100 µM | 0.26 µM | > 100 µM | 0.276 µM | 4.16 µM
4 | CC(=O)OCC1OC(n2cnc3c(I)nc(I)nc32)C(OC(C)=O)C1OC(C)=O (stereo not given) | – | 31.6 µM | – | 35.1 µM | – | 33 µM | – | 34.4 µM | – | 3.53 µM | – | 4.09 µM | – | 33.6 µM | – | 33.3 µM | – | 28.4 µM | – | 19.7 µM
5 | Nc1nccc(C#Cc2cncnc2Nc2ccc(OCc3cccc(F)c3)c(Cl)c2)n1 | 4.51 µM | 9.43 µM | 11.7 µM | > 25 µM | 4.98 µM | 9.34 µM | 4.93 µM | 9.17 µM | 2.23 µM | 5.88 µM | 5.37 µM | 11 µM | 4.5 µM | 8.22 µM | 4.51 µM | 9.85 µM | 3 µM | 7.66 µM | 4.57 µM | 9.05 µM
6 | Clc1ccc(C2=NN(c3ccccc3)C3c4cc(Br)ccc4OCC23)cc1 (stereo not given) | – | – | – | > 100 µM | – | > 100 µM | – | > 100 µM | – | > 100 µM | – | – | – | > 100 µM | – | > 100 µM | – | > 100 µM | – | > 100 µM
7 | Cc1cc(N(CCC#N)CCC#N)ccc1N=Nc1ccc([N+](=O)[O-])cc1 | – | > 100 µM | – | > 100 µM | – | > 100 µM | – | > 100 µM | – | > 100 µM | – | > 100 µM | – | 83.2 µM | – | > 100 µM | – | > 10 µM | – | > 100 µM
8 | COC(=O)C12C3C=CC(O3)C1C1C=CC2O1 (stereo not given) | – | > 100 µM | – | > 100 µM | – | > 100 µM | – | – | – | > 100 µM | – | – | – | > 100 µM | – | > 100 µM | – | > 100 µM | – | > 100 µM
9 | COc1ccc(Nc2nc3c(N)cc(C(F)(F)F)cc3nc2-c2ccccc2)cc1 | – | > 100 µM | – | > 100 µM | – | > 100 µM | – | > 100 µM | – | > 100 µM | – | > 100 µM | – | > 100 µM | – | > 100 µM | – | > 100 µM | – | –
10 | CCN1N=CSC12C(=O)N(c1ccccc1)C(=O)N2c1ccccc1 (stereo not given) | – | > 100 µM | – | > 100 µM | – | – | – | > 100 µM | – | > 100 µM | – | > 100 µM | – | > 100 µM | – | > 100 µM | – | > 100 µM | – | > 100 µM
11 | COc1cc(-c2[nH]ncc2CCCC(=O)Nc2ccccc2[N+](=O)[O-])ccc1O | – | > 100 µM | – | > 100 µM | – | – | – | > 100 µM | – | > 100 µM | – | > 100 µM | – | > 100 µM | – | > 100 µM | – | > 100 µM | – | > 100 µM
12 | COc1ccc(Br)c(CCCCC(=O)O)c1 | – | > 100 µM | – | > 100 µM | – | – | – | > 100 µM | – | – | – | > 100 µM | – | > 100 µM | – | > 100 µM | – | > 100 µM | – | > 100 µM
13 | Fc1cccc(C=NC23CC4CC(CC(C4)C2)C3)c1 | – | > 100 µM | – | > 100 µM | – | > 100 µM | – | > 100 µM | – | > 100 µM | – | > 100 µM | – | > 100 µM | – | > 100 µM | – | – | – | > 100 µM
14 | CN(C)CC1CCCC(CN(C)C)C1=O (stereo not given) | 1.48 µM and 6.11 µM | 3.03 µM and 11.7 µM | 19.3 µM and > 100 µM | 35.7 µM and > 100 µM | – | 20.6 µM and 35.2 µM | > 73.1 µM and 20.8 µM | > 90.6 µM and 43 µM | 0.179 µM and 1.06 µM | 0.443 µM and 3.46 µM | 1.39 µM and 0.259 µM | 3.12 µM and 0.858 µM | 2.81 µM and 0.861 µM | 7.88 µM and 2.63 µM | – | 17.8 µM and 14.1 µM | 0.367 µM | 0.639 µM and 1.92 µM | – | –
15 | NC(=NCc1ccccc1)N/N=C\c1ccnc2ccccc12 | – | 17.5 µM | – | 32.2 µM | – | 22.1 µM | – | 32.1 µM | – | – | – | – | – | 32.1 µM | – | 33.1 µM | – | 31.2 µM | – | 25.4 µM
16 | CCOC(=O)C12CN(C34CC5CC(CC(C5)C3)C4)CC(C(=O)OCC)(C1=O)C(c1ccccc1)OC2c1ccccc1 (stereo not given) | – | > 100 µM | – | > 100 µM | – | > 100 µM | – | > 100 µM | – | – | – | – | – | > 100 µM | – | > 100 µM | – | > 100 µM | – | > 100 µM
17 | COC(=O)CC(CC(=O)C(=O)OC)C(=O)OC (stereo not given) | – | > 100 µM | – | > 100 µM | – | > 100 µM | – | > 100 µM | – | – | – | > 100 µM | – | > 100 µM | – | > 100 µM | – | > 100 µM | – | > 100 µM
18 | CCCCCNC(=O)C1C(=O)N(CCCCC)C(=O)/C1=N\N (stereo not given) | – | > 100 µM | – | > 100 µM | – | 86.2 µM | – | > 100 µM | – | > 100 µM | – | – | – | > 100 µM | – | > 100 µM | – | > 100 µM | – | > 100 µM

Reference: PubChem BioAssay (NCI)
